Data reported in US5190975A, “Indan derivatives used for treating thromboses or asthma” (Tanabe Seiyaku Co., Ltd., priority 1987, dated 1993).

Tests used:
[1] = system: arachidonic acid-induced pulmonary embolism; experiment: Inhibiting effect on arachidonic acid-induced pulmonary embolism (in vivo); set-up: species or system ddy-male mice; details: Mus musculus; dose required to shorten the recovery time by at least 15% as compared with the control group; oral, 3 hours before arachidonic acid 125 mg/kg, mice
Experimental: Inhibiting effect on arachidonic acid-induced pulmonary embolism (in vivo):
A test compound in an aqueous carboxymethylcellulose solution (20 ml/kg) was orally administered to ddy-male mice fasted overnight. Three hours later, arachidonic acid (125 mg/kg) was injected to the tail vein of mice to induce pulmonary embolism, and the recovery time (minute) of locomotive activity of the mice was compared with that of a control group of mice to which a 0.25% aqueous CMC solution was administered instead of the test compound solution. The inhibiting effect of each test compound on arachidonic acid-induced pulmonary embolism was estimated in terms of the dose required to shorten the recovery time by at least 15% as compared with the control group.

TxA2 = details: Thrombosis Research, 35, 379-395, 1984; cited from earlier work

| Compound | ED15 [1] | TxA2-antagonistic activity (TxA2) |
| --- | --- | --- |
| O=C(O)CCNC(=O)Cc1ccc2c(c1)CC(NS(=O)(=O)c1ccc(Cl)cc1)C2 (stereo not shown) [Example 1] | 0.03 mg/kg | – |
| O=C(O)CCCNC(=O)Cc1ccc2c(c1)CC(NS(=O)(=O)c1ccc(Cl)cc1)C2 (stereo not shown) [Example 2] | 0.03 mg/kg | – |
| O=C(O)COc1ccc(CCNS(=O)(=O)c2ccccc2)cc1 [Control, 4-(2-Benzensulfonylaminoethyl)phenoxyacetic acid] | 30 mg/kg | has TxA2 -antagonistic activity |
